These are literature values, as cited in US9744237B2, “Method and system for effecting changes in pigmented tissue” (priority 2009, dated 2017).

A value given as a limit tells only on which side of the number the result lay.

Series [1] deals with tyrosinase. The conditions noted are these: for RAb: relative activity of tyrosinase inhibitor, RAb and F not defined in the patent.
Series [2] relates to B16 melanoma cells.
Series [3] deals with uveal melanocytes. The following applies: for growth and melanogenesis of cultured uveal melanocytes: cAMP-deleted medium.
Series [4] concerns HM3K0 melanoma cells.

For the molecule `O=c1c(-c2ccc(O)cc2)coc2c(O)c(O)cc(O)c12` [8-Hydroxygenistein, 5,7,8,4′-tetrahydroxyisoflavone], in series [1], the “inhibition mechanism on tyrosinase” value is reported as “Suicide substrate” and the “tyrosinase inhibitory activity in words” value was “the most potent suicide substrate of mushroom tyrosinase until now”. With tunicamycin, the “melanogenesis / melanin content / pigmentation” value in series [2] is “decreased pigmentation”.

Regarding `CNC[C@H](O)c1ccc(O)c(O)c1` [Epinephrine], in series [3], the “growth and melanogenesis of cultured uveal melanocytes” value is “substantially stimulated growth and melanogenesis”. In the case of Kuraridinol, the “inhibition mechanism on tyrosinase” value in series [1] is given as “Non-competetive”. On to `C=CC(C)(C)c1cc(/C=C/C(=O)c2ccc(O)cc2)c(OC)cc1O` [LicochalconeA], for which, in series [1], the “inhibition mechanism on tyrosinase” value is listed as “Competitive” and the RAb is recorded as 5.4 F. For `N[C@H]1C(O)O[C@H](CO)[C@@H](O)[C@@H]1O` (stereo partly shown) [glucosamine], the “melanogenesis / melanin content / pigmentation” value in series [2] is “decreased pigmentation”. `OC[C@H]1NC[C@@H](O)[C@@H](O)[C@@H]1O` [deoxymannojirimycin]: the “glycosylation, transportation of tyrosinase to the melanosome and melanin synthesis” value in series [4] is “showed inhibition of glycosylation, transportation of tyrosinase to the melanosome and melanin synthesis”. Consider `Cc1ccc(C2(C)CC(C)(C)c3ccc(C)cc3O2)c(O)c1` (stereo not shown) [Inulavosin], for which, in series [2], the “effect on tyrosinase mRNA / transcription” value is reported as “without affecting either the enzymatic activities or the transcription of tyrosinase” and the “melanogenesis / melanin content / pigmentation” value is “reduced the melanin content”. As to `CC1(C)C=Cc2c(ccc3c2OC[C@@H](c2ccc(O)cc2O)C3)O1` [Glabridine], in series [1], the “inhibition mechanism on tyrosinase” value is listed as “Non-competitive” and the RAb is reported as 15.2 F. As for `COc1ccc(OC)c(C(O)C(C)N)c1` (stereo not shown) [Methoxamine], in series [3], the “growth and melanogenesis of cultured uveal melanocytes” value is listed as “showed no effect”.

For `CC(C)NCC(O)c1ccc(O)c(O)c1` (stereo not shown) [isoproterenol], the “growth and melanogenesis of cultured uveal melanocytes” value in series [3] was “substantially stimulated growth and melanogenesis”. As to `O=C(/C=C/c1c(O)cc(O)cc1O)c1ccc(O)cc1O` [2,4,6,2′,4′-Pentahydroxychalcone], in series [1], the “inhibition mechanism on tyrosinase” value is “Competitive” and the RAb is 12.0 F. With `CC(C)=CCc1c(O)ccc(/C=C/C(=O)c2ccc(O)cc2O)c1O` [TMBC, 2,4,2′,4′-tetrahydroxy-3-(3-methy1-2-buteny1)-chalcone], in series [1], the “inhibition mechanism on tyrosinase” value is on record as “Competitive” and the RAb was 26.1 F. On to `CC1=C(O)C(=O)C(C)O1` (stereo not shown) [DMHF, 2,5-Dimethyl-4-hydroxy-3(2H)-furanone], for which, in series [2], the “melanogenesis / melanin content / pigmentation” value is “inhibits a-MSH induced melanogenesis”.

As to `Br.CCN1C[C@]2(OC(=O)c3ccccc3NC(C)=O)CC[C@H](OC)[C@@]34[C@@H]2C[C@@H]([C@@H]13)[C@@]1(O)C[C@H](OC)[C@H]2C[C@@H]4[C@]1(O)[C@H]2OC` [Lappaconitine hydrobromide], the “tyrosinase inhibitory activity in words” value in series [1] is “activity similar to that of kojic acid”.

Regarding “Hen egg white lysozyme (HEWL): Hen egg white lysozyme”, the “inhibition mechanism on tyrosinase” value in series [1] was “reversibly and irreversibly mixed inhibition mechanism”. On to `COc1cc(O)c2c(=O)cc(-c3ccc(O)cc3O)oc2c1` [Artocarpetin, 5,2′,4′-trihydroxy-7-methoxyflavone], for which the RAb in series [1] is recorded as under 0.1 F.

In the case of `O=c1c(-c2ccc(O)cc2)coc2c(O)c(O)ccc12` [8-Hydroxydaidzein, 7,8,4′-trihydroxyisoflavone], in series [1], the “inhibition mechanism on tyrosinase” value is “Suicide substrate”.

Take `Oc1ccc(-c2ccc3cc(O)ccc3c2)c(O)c1` [HNB, 4-(6-hydroxy-2-naphtyl)-1.3-bezendiol]: in series [1], the “tyrosinase inhibitory activity in words” value was “the strongest tyrosinase inhibitor published until now”. For the molecule `COCCNC(=O)COc1ccc(OCCNC[C@H](O)COc2ccccc2)cc1` [Example D7114], the “growth and melanogenesis of cultured uveal melanocytes” value in series [3] is “showed no effect”. On to `COc1c(O)ccc(C2=Cc3ccc(O)cc3OC2)c1OC` [HagininA, 2′,3′-dimethoxy-7,4′-dihdroxyisoflav-3-ene], for which, in series [1], the “inhibition mechanism on tyrosinase” value is listed as “Non-competitive” and the RAb was 10.1 F.

Regarding `CC(C)NC[C@H](O)COc1ccc(O)cc1` [prenalterol], the “growth and melanogenesis of cultured uveal melanocytes” value in series [3] is “showed no effect”. As for `CC(C)(C)NCC(O)c1ccc(O)c(CO)c1` (stereo not shown) [salbutamol], the “growth and melanogenesis of cultured uveal melanocytes” value in series [3] is “substantially stimulated growth and melanogenesis”. Take `CC(C)NCC(O)c1cc(O)cc(O)c1` (stereo not shown) [metaproterenol]: the “growth and melanogenesis of cultured uveal melanocytes” value in series [3] is “substantially stimulated growth and melanogenesis”. For the molecule `O=C(NCc1ccc(O)cc1O)c1cc(O)cc(O)c1` [3,5,2′,4′-Tetrahydfoxyl derivatives], the RAa in series [1] (N-Benzylbenzamides, RAa and F not defined in the patent) is 7.4 F. In the case of `C[C@@H]1O[C@H](C[N+](C)(C)C)C[C@H]1O` [Muscarine], the “growth and melanogenesis of uveal melanocytes” value in series [3] (complete medium) was “inhibited the growth and melanogenesis”. Take `O=C1CC(c2ccc(O)cc2O)Oc2cc(O)cc(O)c21` (stereo not shown) [Streppogenin, 5,7,2′,4′-tetrahydroxy-flavavone]: in series [1], the “inhibition mechanism on tyrosinase” value was “Competitive” and the RAb is 13.6 F. In the case of `O=C(/C=C/c1ccc(O)cc1O)c1ccc(O)cc1O` [2,4,2′,4′-Tetrahydroxychalcone], in series [1], the “inhibition mechanism on tyrosinase” value is “Competitive” and the RAb is 2.5 F. On to `Clc1cccc(Cl)c1N=C1NCCN1` [clonidine], for which the “growth and melanogenesis of cultured uveal melanocytes” value in series [3] is “showed no effect”. Consider `O=c1c(-c2ccc(O)cc2)coc2cc(O)c(O)cc12` [6-Hydroxydaidzein, 6,7,4′-trihydroxyisoflavone], for which, in series [1], the “inhibition mechanism on tyrosinase” value is “Competitive” and the RAb is 6.0 F.

With `O=c1cc(-c2ccc(O)cc2O)oc2cc(O)cc(O)c12` [Norartocarpetin], in series [1], the “inhibition mechanism on tyrosinase” value is “Competitive” and the RAb is recorded as 10.4 F. Regarding `COc1c(CC=C(C)C)c(O)cc2c1C[C@H](c1ccc(O)cc1O)CO2` [GlyasperinC], in series [1], the RAb is recorded as 27.7 F.

In the case of `C=C(C)[C@H](CC=C(C)C)Cc1c(O)cc(OC)c(C(=O)/C=C/c2ccc(O)cc2O)c1O` [Kuraridin], the RAb in series [1] is on record as 34.1 F.

Take `OCc1ccc(O)cc1` [p-hydroxybenzyl alcohol]: the “inhibition mechanism on tyrosinase” value in series [1] is given as “irreversibly inhibited the enzyme”.

B1: TGFbeta2: Transforming growth factor-beta2, growth inhibit factor of uveal melanocytes (protein, UniProt P61812 303-414, looked up)
Transforming growth factor …: ALDAAYCFRNVQDNCCLRPLYIDFKRDLGWKWIHEPKGYNANFCAGACPYLWSSDTQHSRVLSLYNTINPEASASPCCVSQDLEPLTILYYIGKTPKIEQLSNMIVKSCKCS
As for B1, the “amount of active TGFbeta2 in aqueous humor sufficient to inhibit the growth of uveal melanocytes” value in series [3] was 0.2-0.4 ng m1-1.
